Experimental findings from article PMC8073686, “Characterization of Subtype Selective Cannabinoid CB2 Receptor Agonists as Potential Anti-Inflammatory Agents” (Pharmaceuticals, 2021) are described below.

The test relates to TNF-α mRNA in Jurkat cells. Briefly: PHA/PMA-induced TNF-α mRNA in Jurkat cells (RT-PCR). The class given is cell-based, human. Particulars: 10 μM. The protocol: Activation of CB2 is known to have anti-inflammatory effects. There are some studies reporting that CB2 agonists decrease cytokine production in immune cells. We also reported that the cannabinoid receptor agonist CP55,940 and ABK5 inhibit cytokine production in the human T cell lines Jurkat and MOLT-4 [24]. Since ABK5-1 and 5-2 were confirmed to be CB2-subtype selective agonists, we were interested to determine whether these compounds also have anti-inflammatory effects. Note, although ABK5-6 had marginally better binding affinity to CB2, it bound to CB1 […] (i.e., micromolar range). Therefore ABK5-6 was not selected for further evaluations. We first tested the change of IL-2 and TNF-α mRNA levels in Jurkat cells. […] To test if these mRNA changes are reflected in the protein levels of cytokines, the IL-2 and TNF-α concentration in the cell culture medium were measured by ELISA. […] Unlike ABK5-1, at 3 h of treatment, the lowest concentration of ABK5-2 used caused the IL-2 mRNA decrease. […] On the other hand, TNF-α mRNA decreased by 45% at 10 μM ABK5-2 after 3 h of treatment (Figure 4E, black columns). […] These mRNA level changes were similar to that of ABK5-1, except ABK5-2 caused a stronger inhibitory effect on expression of TNF-α mRNA. […] Consistent with the mRNA levels, the inhibitory effect of ABK5-2 on TNF-α production was stronger than that of ABK5-1.
Figure 4 Effect of ABK5-1 and ABK5-2 on phytohemagglutinin (PHA)/phorbol 12-myristate 13-acetate (PMA)-induced cytokine production in T cells. Jurkat cells were pretreated with DMSO (<0.1%; indicated as 0 μM) or various concentrations of ABK5-1 (A–D) or ABK5-2 (E–H) and stimulated with PHA and PMA. IL-2 and TNF-α mRNA levels were determined by real-time PCR (RT-PCR) after ABK5-1 treatment and (A) 3 h and (B) 24 h of PHA/PMA (phytohemagglutinin/phorbol 12-myristate 13-acetate) stimulation. Protein levels of (C) IL-2 and (D) TNF-α were also examined after 24 h of stimulation. IL-2 and TNF-α mRNA were also examined after ABK5-2 treatment and (E) 3 h and (F) 24 h of stimulation, and protein levels of (G) IL-2 and (H) TNF-α were measured after 24 h stimulation. […]
Jurkat cells were lysed and total RNA was extracted using TRIzol Reagent (Life Technologies, Carlsbad, CA, USA) followed by reverse transcription by a High-Capacity cDNA Reverse Transcription kit (Life Technologies, Carlsbad, CA, USA) according to the manufacturer’s instructions. Quantitative real-time PCR was performed using an Applied Biosystems 7500 Fast Real-Time PCR system in a 10 μL reaction volume containing 2 μL diluted cDNA and 0.5 μM each of forward and reverse primers, and PowerUp SYBR Green Master Mix (Life Technologies, Carlsbad, CA, USA). […]

For `CCOC(=O)c1ccccc1NC(=O)CN(c1ccc(C)cc1C)S(=O)(=O)c1ccccc1` [ABK5-1], the “decrease of TNF-α mRNA” value is recorded as 35% (3 h PHA/PMA stimulation) and 50% (24 h).

In the case of `CCOC(=O)c1ccccc1NC(=O)CN(c1c(C)cccc1C)S(=O)(=O)c1ccccc1` [ABK5-2], the “decrease of TNF-α mRNA” value (3 h PHA/PMA stimulation) was 45% and the “decrease of TNF-α mRNA” value (24 h) was “about 60%”.
